Experimental findings from PMC7486940, “Pre-symptomatic Caspase-1 inhibitor delays cognitive decline in a mouse model of Alzheimer disease and aging” (Nature Communications, 2020) are described below.

One assay has as its system WT mice. Nature of the assay: novel object recognition (NOR), episodic memory. The class given is in vivo, mouse. How it is done: (§1) VX-765 (Adooq Bioscience, Irvine, CA, USA) was dissolved 5 mg • ml^−1 in 20% cremophor in dH2O[60] (Sigma-Aldrich, ON, Canada) and administered IPWT and J20 mice received three injections per week of either 50 mg • kg^−1 VX-765 or 20% cremophor vehicle for 4 weeks between 2 and 3 months of age. Mice were longitudinally followed starting 4 weeks after the last injection [4-week washout (WO)], then every other month at 12- and 20-week WO (6 and 8 months of age, respectively). Intermediate 8- and 16-week WO periods were also looked at with a smaller number of mice. After each WO period, animals were randomly chosen, independent of behavioural performance, for sacrifice and assigned to either histological or biochemical analysis (Fig. 2a).
(§2) Open-field and novel object recognition (NOR) were measured at all WO periods. The Barnes maze was assessed at 12- and 20-week WO. Open field: Mice were placed in an open-field chamber, composed of a plexiglass box with no ceiling and white floor, and allowed to explore for 5 min. NOR: Mice were pre-exposed to two identical objects in the open-field chamber for 5 min. Two hours after pre-exposure, mice were placed back into the chamber and exposed to one familiar object and one novel object for 5 min (test phase). Mice were exposed to a specific object only once across multiple test sessions. Barnes maze: Learning acquisition (days 1–4)—each mouse was trained to find the target and enter the escape box within 180 s. Four trials per day, ~15 min apart, were performed for 4 consecutive days. Probe (day 5)—a single, 90 s trial was performed on each mouse to measure primary latency and number of errors to reach the blocked target. Target hole location was changed between the two separate test sessions. Behavioural scoring was blinded to mouse genotype and treatment.

The next assay deals with J20 mice. Nature of the assay: novel object recognition (NOR), episodic memory. In kind it is in vivo, mouse. How it is done:
as §1, §2

With `CCO[C@@H]1OC(=O)C[C@@H]1NC(=O)[C@@H]1CCCN1C(=O)[C@@H](NC(=O)c1ccc(N)c(Cl)c1)C(C)(C)C` [VX-765, (S)-1-((S)-2-{[1-(4-amino-3-chloro-phenyl)-methanoyl]-amino}-3,3-dimethyl-butanoyl)-pyrrolidine-2-carboxylic acid ((2R,3S)-2-ethoxy-5-oxo-tetrahydro-furan-3-yl)-amide], the NOR performance entry was “increased” in the assay on WT mice (VX-765-treated WT, 6-month-old (12-week WO) vs VX-765-treated 4-month-old WT) and “increased” in the assay with WT mice (WT, 8-month-old (20-week WO), 50 mg/kg IP 3x/week for 1 month, vs same age vehicle-treated WT). Moreover, the “percentage of NOR impaired mice” value in the assay with WT mice (WT, 50 mg/kg IP 3x/week for 1 month, 12- to 20-week WO) was “increased between 12- and 20-week WO in the vehicle-treated, but not VX-765-treated WT mice”; in the assay on J20 mice (VX-765-treated J20, 50 mg/kg IP 3x/week for 1 month) it was “increased consistently between 4- and 20-week WO”. For the same compound, the “delay of the onset of cognitive impairment” value with J20 mice (J20, 50 mg/kg IP 3x/week for 1 month, pre-symptomatic) is given as “at least 5 months”. Further, in the assay with J20 mice (J20, pre-symptomatic 50 mg/kg IP 3x/week for 1 month, 4-, 8-, 12-, 16- and 20-week WO, vs vehicle-treated J20), the “NOR discrimination index (NOR impairment)” value is given as “protected J20 mice against NOR impairment at all WO periods”. In addition, the “NOR performance over washout” value in the assay with J20 mice (VX-765-treated J20, 50 mg/kg IP 3x/week for 1 month, 4- vs 20-week WO) was “declined between 4- and 20-week WO”.
